Columns and labels:
Experiment in all cases: Growth inhibition test (DGHM, Essai 2, Tables A-C), 72 h at 37°C; non/A/B/C = without or with inactivating substances A, B, C
E. coli ATCC 11229 = type: cell-based, Escherichia coli
Description: (§1) Un autre essai a été réalisé à partir des solutions suivantes : • 100 ml d'une solution à 0,1 % de digluconate de chlorhexidine (pH 6) et • 100 ml d'une solution à 0,1 % de Bardac 22®.
(§2) L'activité de ces solutions, seules ou en combinaison a été plus particulièrement testée vis-à-vis de Staphylococcus aureus ATCC 6538, Escherichia coli ATCC 11229 et Candida albicans ATCC 10231.
(§3) Les tests ont été réalisés conformément au protocole décrit dans le Chapitre I/2.1 et 2.2 de Richtlinien für die Prüfung und Bewertung chemischer Desinfektionsverfahren der DGHM, Stand 1.1., 1981).
(§4) Les Tableaux A, B et C illustrent respectivement l'activité bactéricide et fongicide d'une solution aqueuse à 0,1 % de digluconate de chlorhexidine, d'une solution aqueuse à 0,1 % de Bardac 22® et d'un mélange à part égale des deux composés. Les protocoles dont ces Tableaux illustrent les résultats comprennent une incubation de 72 heures à 37°C et l'utilisation, comme témoins, des substances inactivantes suivantes : A : Tween® 80 3 % + lécithine 0,3 % + cystéine 0,1 %; B : Tween® 80 3 % + saponine 3 % + cystéine 0,1 % + histidine 0,1 %; C : Tween® 80 3 % + lécithine 0,3 % + histidine 0,1 % + thiosulfate de sodium 0,5 %.
(§5) Dans ces Tableaux, le signe "+" indique une croissance et le signe "-" l'absence de croissance.

[1] = system: Candida albicans ATCC 1031; type: cell-based
Description: Un autre essai a été réalisé à partir des solutions suivantes : • 100 ml d'une solution à 0,1 % de digluconate de chlorhexidine (pH 6) et • 100 ml d'une solution à 0,1 % de Bardac 22®. […]
as §3, §4, §5

S. aureus ATCC 6538 = type: cell-based, Staphylococcus aureus
Description: as §1, §2, §3, §4, §5

In the case of `[H]/N=C(\N/C(=N/[H])NCCCCCCNC(=N)NC(=N)Nc1ccc(Cl)cc1)Nc1ccc(Cl)cc1` [Chlorhexidine, digluconate de chlorhexidine, reference compound], the croissance (E. coli ATCC 11229; Conc. 0,1 % (vol/vol), A) is reported as “+”, the croissance (E. coli ATCC 11229; Conc. 0,1 % (vol/vol), B) is reported as “+” and the croissance (E. coli ATCC 11229; Conc. 0,1 % (vol/vol), C) is reported as “+”. For the same compound, the croissance (E. coli ATCC 11229; Conc. 0,1 % (vol/vol), non) was “+”, the croissance (E. coli ATCC 11229; Conc. 0,05 % (vol/vol), A) was “+” and the croissance (E. coli ATCC 11229; Conc. 0,5 % (vol/vol), A) was “+”. For the same compound, the croissance (E. coli ATCC 11229; Conc. 0,05 % (vol/vol), B) was “+”, the croissance (E. coli ATCC 11229; Conc. 0,5 % (vol/vol), B) was “+” and the croissance (E. coli ATCC 11229; Conc. 0,05 % (vol/vol), C) was “+”. For the same compound, the croissance (E. coli ATCC 11229; Conc. 0,5 % (vol/vol), C) was “+”, the croissance (E. coli ATCC 11229; Conc. 0,05 % (vol/vol), non) was “+” and the croissance (E. coli ATCC 11229; Conc. 0,5 % (vol/vol), non) was “-”. For the same compound, the croissance (E. coli ATCC 11229; Conc. 1,0 % (vol/vol), A) was “+”, the croissance (E. coli ATCC 11229; Conc. 1,0 % (vol/vol), B) was “+” and the croissance (E. coli ATCC 11229; Conc. 1,0 % (vol/vol), C) was “+”. For the same compound, the croissance (E. coli ATCC 11229; Conc. 1,0 % (vol/vol), non) was “-”, the croissance (E. coli ATCC 11229; Conc. 0,00625 % (vol/vol), A) was “+” and the croissance (E. coli ATCC 11229; Conc. 0,00625 % (vol/vol), B) was “+”. For the same compound, the croissance (E. coli ATCC 11229; Conc. 0,00625 % (vol/vol), C) was “+”, the croissance (E. coli ATCC 11229; Conc. 0,00625 % (vol/vol), non) was “+” and the croissance (E. coli ATCC 11229; Conc. 0,0125 % (vol/vol), A) was “+”. The croissance (E. coli ATCC 11229; Conc. 0,0125 % (vol/vol), B) was “+”, the croissance (E. coli ATCC 11229; Conc. 0,0125 % (vol/vol), C) was “+” and the croissance (E. coli ATCC 11229; Conc. 0,0125 % (vol/vol), non) was “+”. For the same compound, the croissance (E. coli ATCC 11229; Conc. 0,025 % (vol/vol), A) was “+”, the croissance (E. coli ATCC 11229; Conc. 0,025 % (vol/vol), B) was “+” and the croissance (E. coli ATCC 11229; Conc. 0,025 % (vol/vol), C) was “+”. The croissance (E. coli ATCC 11229; Conc. 0,025 % (vol/vol), non) was “+”, the “concentration en substance active inhibant la croissance” value (E. coli ATCC 11229; antiseptique seul) was 0,0005% and the croissance ([1]; Conc. 0,1 % (vol/vol), A) was “+”. The croissance ([1]; Conc. 0,1 % (vol/vol), B) was “+”, the croissance ([1]; Conc. 0,1 % (vol/vol), C) was “+” and the croissance ([1]; Conc. 0,1 % (vol/vol), non) was “+”. The croissance ([1]; Conc. 0,05 % (vol/vol), A) was “+”, the croissance ([1]; Conc. 0,5 % (vol/vol), A) was “+” and the croissance ([1]; Conc. 0,05 % (vol/vol), B) was “+”. The croissance ([1]; Conc. 0,5 % (vol/vol), B) was “+”, the croissance ([1]; Conc. 0,05 % (vol/vol), C) was “+” and the croissance ([1]; Conc. 0,5 % (vol/vol), C) was “+”. The croissance ([1]; Conc. 0,05 % (vol/vol), non) was “+”, the croissance ([1]; Conc. 0,5 % (vol/vol), non) was “+” and the croissance ([1]; Conc. 1,0 % (vol/vol), A) was “+”. The croissance ([1]; Conc. 1,0 % (vol/vol), B) was “+”, the croissance ([1]; Conc. 1,0 % (vol/vol), C) was “+” and the croissance ([1]; Conc. 1,0 % (vol/vol), non) was “-”. The croissance ([1]; Conc. 0,00625 % (vol/vol), A) was “+”, the croissance ([1]; Conc. 0,00625 % (vol/vol), B) was “+” and the croissance ([1]; Conc. 0,00625 % (vol/vol), C) was “+”. The croissance ([1]; Conc. 0,00625 % (vol/vol), non) was “+”, the croissance ([1]; Conc. 0,0125 % (vol/vol), A) was “+” and the croissance ([1]; Conc. 0,0125 % (vol/vol), B) was “+”. The croissance ([1]; Conc. 0,0125 % (vol/vol), C) was “+”, the croissance ([1]; Conc. 0,0125 % (vol/vol), non) was “+” and the croissance ([1]; Conc. 0,025 % (vol/vol), A) was “+”. The croissance ([1]; Conc. 0,025 % (vol/vol), B) was “+”, the croissance ([1]; Conc. 0,025 % (vol/vol), C) was “+” and the croissance ([1]; Conc. 0,025 % (vol/vol), non) was “+”. For the same compound, the “concentration en substance active inhibant la croissance” value ([1]; antiseptique seul) was 0,001%, the croissance (S. aureus ATCC 6538; Conc. 0,1 % (vol/vol), A) was “+” and the croissance (S. aureus ATCC 6538; Conc. 0,1 % (vol/vol), B) was “+”. For the same compound, the croissance (S. aureus ATCC 6538; Conc. 0,1 % (vol/vol), C) was “+”, the croissance (S. aureus ATCC 6538; Conc. 0,1 % (vol/vol), non) was “+” and the croissance (S. aureus ATCC 6538; Conc. 0,05 % (vol/vol), A) was “+”. For the same compound, the croissance (S. aureus ATCC 6538; Conc. 0,5 % (vol/vol), A) was “+”, the croissance (S. aureus ATCC 6538; Conc. 0,05 % (vol/vol), B) was “+” and the croissance (S. aureus ATCC 6538; Conc. 0,5 % (vol/vol), B) was “+”. The croissance (S. aureus ATCC 6538; Conc. 0,05 % (vol/vol), C) was “+”, the croissance (S. aureus ATCC 6538; Conc. 0,5 % (vol/vol), C) was “+” and the croissance (S. aureus ATCC 6538; Conc. 0,05 % (vol/vol), non) was “+”. The croissance (S. aureus ATCC 6538; Conc. 0,5 % (vol/vol), non) was “-”, the croissance (S. aureus ATCC 6538; Conc. 1,0 % (vol/vol), A) was “+” and the croissance (S. aureus ATCC 6538; Conc. 1,0 % (vol/vol), B) was “+”. For the same compound, the croissance (S. aureus ATCC 6538; Conc. 1,0 % (vol/vol), C) was “+”, the croissance (S. aureus ATCC 6538; Conc. 1,0 % (vol/vol), non) was “-” and the croissance (S. aureus ATCC 6538; Conc. 0,00625 % (vol/vol), A) was “+”. The croissance (S. aureus ATCC 6538; Conc. 0,00625 % (vol/vol), B) was “+”, the croissance (S. aureus ATCC 6538; Conc. 0,00625 % (vol/vol), C) was “+” and the croissance (S. aureus ATCC 6538; Conc. 0,00625 % (vol/vol), non) was “+”. For the same compound, the croissance (S. aureus ATCC 6538; Conc. 0,0125 % (vol/vol), A) was “+”, the croissance (S. aureus ATCC 6538; Conc. 0,0125 % (vol/vol), B) was “+” and the croissance (S. aureus ATCC 6538; Conc. 0,0125 % (vol/vol), C) was “+”. For the same compound, the croissance (S. aureus ATCC 6538; Conc. 0,0125 % (vol/vol), non) was “+”, the croissance (S. aureus ATCC 6538; Conc. 0,025 % (vol/vol), A) was “+” and the croissance (S. aureus ATCC 6538; Conc. 0,025 % (vol/vol), B) was “+”. For the same compound, the croissance (S. aureus ATCC 6538; Conc. 0,025 % (vol/vol), C) was “+”, the croissance (S. aureus ATCC 6538; Conc. 0,025 % (vol/vol), non) was “+” and the “concentration en substance active inhibant la croissance” value (S. aureus ATCC 6538; antiseptique seul) was 0,0005%.

From patent EP0555116B1, “Compositions based on antiseptics and their applications” (HUTCHINSON, priority 1992, dated 1993)
